Measurements taken from ChEMBL document CHEMBL6182858, “Dichloromethyl-Containing Derivatives from Streptomyces agglomeratus 5-2-6, a Soil Bacterium Isolated from the Qinghai-Tibet Plateau” (J Nat Prod, 2025).

These molecules were tested on Bacillus thuringiensis (assay: Antibacterial activity against Bacillus thuringiensis assessed as inhibition of bacterial growth by agar plate method).
Type: functional, organism-based
`O=c1cc(C(Cl)Cl)cc(CO)o1` was tested, and the Activity was “Not active; Detectable Activity Not Observed”. For `CC/C=C(\C)[C@@H](O)[C@@H](O)C1=CC(=O)/C(=C/C(Cl)Cl)O1`, the Activity was “Moderate_effect”. In the case of `CC[C@H](O)/C(C)=C/[C@@H](O)c1cc(C(Cl)Cl)cc(=O)o1`, the Activity was “Not active; Detectable Activity Not Observed”. `CC[C@@H](O)[C@](C)(O)/C=C/C=C\[C@H](O)C(Cl)Cl` was tested, and the Activity was “Not active; Detectable Activity Not Observed”. For `CC[C@@H](O)/C(C)=C/[C@@H](O)c1cc(C(Cl)Cl)cc(=O)o1`, the Activity was “Not active; Detectable Activity Not Observed”. For `CC[C@@H](O)[C@@](C)(O)/C=C/C=C\[C@H](O)C(Cl)Cl`, the Activity was “Not active; Detectable Activity Not Observed”. With `CC/C=C(\C)[C@@H](O)[C@@H](O)C1=CC(=O)/C(=C\C(Cl)Cl)O1` the Activity was “Moderate_effect”. With `CC/C=C(\C)[C@@H](O)[C@@H](O)c1cc(C(Cl)Cl)cc(=O)o1` the Activity was “Not active; Detectable Activity Not Observed”.
